Target: T1, AAC(2′)-Ia (Providencia stuartii, UniProt Q52424)
T1 construct: AAC(2′)-Ia, N-terminal HIS-tag removed by thrombin
Assay: crystal structure ([…] Å) and competitive inhibition assay
Type: biochemical

T1 sequence (Q52424 whole entry): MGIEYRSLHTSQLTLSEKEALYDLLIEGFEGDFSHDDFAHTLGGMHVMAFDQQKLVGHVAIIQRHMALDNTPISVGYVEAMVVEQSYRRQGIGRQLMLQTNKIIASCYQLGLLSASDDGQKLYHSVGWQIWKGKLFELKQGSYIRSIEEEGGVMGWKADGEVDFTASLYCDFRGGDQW

NCC[C@H](O)C(=O)N[C@@H]1C[C@H](N)[C@@H](O[C@H]2O[C@H](CN)[C@@H](O)[C@H](O)[C@H]2O)[C@H](O)[C@H]1O[C@H]1O[C@H](CO)[C@@H](O)[C@H](N)[C@H]1O [amikacin]
Ki: 87 ± 10 µM
